Measured values from patent US12577247B2 (BUGWORKS RESEARCH, INC., priority 2021, dated 2026).

Assays:
A2A receptor = molecular target: T1, A2A receptor (Homo sapiens, UniProt P29274); test: A2aR antagonism IC50, cAMP TR-FRET in HEK-293 cells, high concentration of adenosine (30 μM); format: cell-based; details: HEK-293 cells expressing A2A receptor; agonist adenosine 30 μM; 2% HSA; inhibition of cAMP; read-out: A2AR IC50 (nM) (@30 μM Adenosine);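 also: compounds added 10 min before adenosine, then 30 min stimulation at room temperature in buffer with 100 µM rolipram and 30 µM EHNA, signal read 1 h after detection reagents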
T1 construct: host or cells: HEK-293

A2B receptor = molecular target: T2, A2B receptor (Homo sapiens, UniProt P29275); test: A2bR antagonism IC50, cAMP TR-FRET in HEK-293 cells, high concentration of adenosine (30 μM); details: A2BR IC50 (nM) (@30 μM Adenosine), HEK-293 cells expressing A2B receptor; agonist adenosine 30 μM; 2% HSA; inhibition of cAMP;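 also: compounds preincubated 10 min with cells, then adenosine stimulation 30 min at room temperature in buffer with Rolipram 100 µM and EHNA 30 µM, TR-FRET read after 1 h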
T2 sequence (P29275 1-332): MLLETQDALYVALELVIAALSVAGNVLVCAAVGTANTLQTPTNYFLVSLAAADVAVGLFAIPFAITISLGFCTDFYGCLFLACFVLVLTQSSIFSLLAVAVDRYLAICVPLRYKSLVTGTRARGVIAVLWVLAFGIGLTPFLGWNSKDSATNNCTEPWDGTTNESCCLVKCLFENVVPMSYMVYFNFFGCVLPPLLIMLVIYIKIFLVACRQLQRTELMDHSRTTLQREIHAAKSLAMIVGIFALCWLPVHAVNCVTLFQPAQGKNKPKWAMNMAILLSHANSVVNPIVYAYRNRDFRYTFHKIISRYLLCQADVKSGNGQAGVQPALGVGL
Procedure: A Time-Resolved Fluorescence Energy Transfer (TR-FRET) assay was used to show the inhibition of this cAMP production in HEK cells upon treatment with compounds of the Formula I of the present disclosure.
HEK-293 cells expressing A2A receptor (#ES-011-C) or A2B receptor (#ES 013-C) were obtained from PerkinElmer. Cells were maintained in DMEM medium supplemented with 10% FBS and 200 μg/mL of G418 at 37° C. and 5% CO2. The cells were cultured in antibiotic free medium for a period of 16-20 hours prior to the assay. All subsequent steps of the assay are performed at room temperature (22-24° C.). […] About 1500 cells per well were pre-incubated for 10 minutes with the compounds of the present invention before adding the agonist Adenosine at a high concentration (30 μM) for a total stimulation time of 30 minutes. […] The assays were conducted in a stimulation buffer containing 1×DMEM, 5 mM HEPES, 2% Human serum albumin (HSA), 100 μM Rolipram and 30 μM erythro-9-(2-hydroxy-3-nonyl) adenine (EHNA). Serial dilutions of compounds were made in stimulation buffer to achieve a final concentration of high micromolar in a reaction volume of 10 μL. The total reaction volume was 10 μL (5 μL of cells, 2.5 μL of antagonist and 2.5 μL of agonist). […] The stimulation was ended, and the reaction completed by adding 5 μL of 4× Eu-cAMP tracer working solution and 5 μL of 4× ULight-anti-cAMP working solution. The TR FRET signal was measured after 1-hour incubation using a Tecan M1000 or a PerkinElmer Victor Nivo plate reader.

T1 sequence (P29274 whole entry): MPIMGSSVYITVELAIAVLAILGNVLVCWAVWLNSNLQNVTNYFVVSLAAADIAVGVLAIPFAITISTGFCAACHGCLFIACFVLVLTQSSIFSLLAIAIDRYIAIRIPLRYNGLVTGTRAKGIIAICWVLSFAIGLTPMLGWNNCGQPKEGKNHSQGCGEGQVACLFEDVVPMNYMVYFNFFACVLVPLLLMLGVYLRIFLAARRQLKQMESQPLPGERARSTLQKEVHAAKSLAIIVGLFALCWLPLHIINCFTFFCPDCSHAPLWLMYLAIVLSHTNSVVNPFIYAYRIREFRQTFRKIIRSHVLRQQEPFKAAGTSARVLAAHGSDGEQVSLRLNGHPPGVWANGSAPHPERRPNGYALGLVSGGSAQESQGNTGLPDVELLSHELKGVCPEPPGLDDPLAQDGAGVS

IC50 (A2A receptor) [nM] | IC50 (A2B receptor) [nM] | Compound
2160 | > 15000 | CCCc1c(C)nn2c(N)c(C#N)c(NCCc3ccn(C4CCC4CO)n3)nc12 (single isomer, unassigned; (+)) [Example 165a, (+)-7-amino-5-((2-(1-(2-(hydroxymethyl)cyclobutyl)-1H-pyrazol-3-yl)ethyl)amino)-2-methyl-3-propylpyrazolo[1,5-a]pyrimidine-6-carbonitrile]
90 | 650 | CCc1c(C)nn2c(N)c(C#N)c(NCCc3cc(C)n(C4COCC4CO)n3)nc12 (single isomer, unassigned; (+)) [Example 168]
102 | 4250 | Cc1nn2c(N)c(C#N)c(NCCc3ccn(CC4CC(O)C4)n3)nc2c1Cl (single isomer, unassigned; (-)) [Example 84, (−)-7-amino-3-chloro-5-((2-(1-((3-hydroxycyclobutyl)methyl)-1H-pyrazol-3-yl)ethyl)amino)-2-methylpyrazolo[1,5-a]pyrimidine-6-carbonitrile]
102 | 2610 | Cc1nn2c(N)c(C#N)c(NCCc3ccn(C4CCC4CO)n3)nc2c1C (single isomer, unassigned; (-)) [Example 104b, (−)-7-amino-5-((2-(1-(2-(hydroxymethyl)cyclobutyl)-1H-pyrazol-3-yl)ethyl)amino)-2,3-dimethylpyrazolo[1,5-a]pyrimidine-6-carbonitrile]
136 | 6070 | Cc1nn2c(N)c(C#N)c(NCCc3ccn(C4COCC4CO)n3)nc2c1C (single isomer, unassigned; (-)) [Example 133b, (−)-7-amino-5-((2-(1-(4-(hydroxymethyl)tetrahydrofuran-3-yl)-1H-pyrazol-3-yl)ethyl)amino)-2,3-dimethylpyrazolo[1,5-a]pyrimidine-6-carbonitrile]
254 | 815 | CCc1c(C)nn2c(N)c(C#N)c(NCCc3cccn(CC[S+](C)[O-])c3=O)nc12 (single isomer, unassigned; (-)) [Example 144b, (−)7-amino-3-ethyl-2-methyl-5-((2-(1-(2-(methylsulfinyl)ethyl)-2-oxo-1,2-dihydropyridin-3-yl)ethyl)amino) pyrazolo[1,5-a]pyrimidine-6-carbonitrile]
1050 | 1540 | CCc1c(C)nn2c(N)c(C#N)c(NCCc3cccn(CCC[S+](C)[O-])c3=O)nc12 (single isomer, unassigned; (-)) [Example 154a, (−)-7-amino-3-ethyl-2-methyl-5-((2-(1-(3-(methylsulfinyl)propyl)-2-oxo-1,2-dihydropyridin-3-yl)ethyl)amino) pyrazolo[1,5-a]pyrimidine-6-carbonitrile]
457 | 1020 | CCc1c(C)nn2c(N)c(C#N)c(NCCc3cccc(C(C)O)n3)nc12 (single isomer, unassigned; (-)) [Example 159b, (−)-7-amino-3-ethyl-5-((2-(6-(1-hydroxyethyl)pyridine-2-yl)ethyl)amino)-2-methylpyrazolo[1,5-a]pyrimidine-6-carbonitrile]
341 | 1250 | CCCc1c(C)nn2c(N)c(C#N)c(NCCc3ccn(C4COCC4CO)n3)nc12 (single isomer, unassigned; (-)) [Example 160b, (−) 7-amino-5-((2-(1-(4-(hydroxymethyl)tetrahydrofuran-3-yl)-1H-pyrazol-3-yl)ethyl)amino)-2-methyl-3-propylpyrazolo[1,5-a]pyrimidine-6-carbonitrile]
1880 | 5790 | CCc1c(C)nn2c(N)c(C#N)c(NCCc3ccn(CCC[S+](C)[O-])n3)nc12 (single isomer, unassigned; (-)) [Example 162a, (−)-7-amino-3-ethyl-2-methyl-5-((2-(1-(3-(methylsulfinyl)propyl)-1H-pyrazol-3-yl)ethyl)amino)pyrazolo[1,5-a]pyrimidine-6-carbonitrile]
